Experimental data reported in PMC4866733 (PLoS Genetics, 2016).

Experiments:
[1] = molecular target: T1, GacSH1 (Pseudomonas aeruginosa, UniProt G3XD98); details: 0.1 mM ATP, 5 mM MgCl2, 50 mM KCl, 50 mM Tris-HCl pH 7.6, 1 mM DTT, room temperature, 20 min; GacSD1 present; labelled compound
T1 construct: gene gacS

[2] = molecular target: T2, LadSH1D1 (Pseudomonas aeruginosa, UniProt Q9HX42); details: 0.1 mM ATP, 5 mM MgCl2, 50 mM KCl, 50 mM Tris-HCl pH 7.6, 1 mM DTT, room temperature, 20 min; labelled compound; phosphoryl transfer to H428
T2 construct: gene ladS
T2 sequence (Q9HX42 entry or part of it): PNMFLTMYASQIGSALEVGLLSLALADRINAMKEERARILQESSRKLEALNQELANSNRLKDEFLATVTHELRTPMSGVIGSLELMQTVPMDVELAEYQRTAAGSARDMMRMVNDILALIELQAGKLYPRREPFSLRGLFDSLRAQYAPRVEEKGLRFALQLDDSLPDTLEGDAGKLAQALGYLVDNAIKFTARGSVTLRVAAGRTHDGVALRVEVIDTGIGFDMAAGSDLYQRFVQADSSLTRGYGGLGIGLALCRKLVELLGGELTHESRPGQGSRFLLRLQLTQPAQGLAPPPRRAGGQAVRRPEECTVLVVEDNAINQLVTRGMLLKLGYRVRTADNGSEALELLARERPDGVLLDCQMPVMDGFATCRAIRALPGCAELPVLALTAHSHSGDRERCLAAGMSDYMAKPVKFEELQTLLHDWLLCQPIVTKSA

T1 sequence (G3XD98 entry or part of it): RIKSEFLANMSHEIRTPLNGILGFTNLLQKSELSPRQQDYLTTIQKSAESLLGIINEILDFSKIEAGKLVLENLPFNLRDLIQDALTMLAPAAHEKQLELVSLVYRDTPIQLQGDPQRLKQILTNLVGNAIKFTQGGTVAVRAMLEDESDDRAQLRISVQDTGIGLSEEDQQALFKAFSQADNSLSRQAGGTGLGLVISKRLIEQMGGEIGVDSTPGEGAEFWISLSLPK

Nc1ncnc2c1ncn2[C@@H]1O[C@H](COP(=O)(O)OP(=O)(O)OP(=O)(O)O)[C@@H](O)[C@H]1O [[γ-^32P]ATP] was tested. Which “autophosphorylation and phosphotransfer to GacSD1, SDS-PAGE and autoradiography” value [1] did it give?
The value was “between the H1 domain of GacS and the D1 domain of GacS”.

And the “autophosphorylation, SDS-PAGE and autoradiography” value [2]?
The value was “LadSH1D1 and LadSH1D1D→A proteins were found in an autophosphorylated form”.
